Measurements taken from ChEMBL document CHEMBL3885861, “Open TG-GATES”.

Species: Rattus norvegicus
Test: Open TG-GATES - Regimen: Single
Format: toxicity, organism-based, Sprague-Dawley
Parameters: regimen Single, gender Male, age 6 weeks
Conditions: in vivo, po, 0 mg/kg, route gavage, dose level Control; for APTT / Bas / Eos / Fbg / Hb / Ht / Lym / MCH / MCHC / MCV / Mono / Neu / PT / Plat / RBC / Ret / WBC: tissue Blood; for KIDNEY_L / KIDNEY_R / KIDNEY_TOTAL: tissue Kidney; for LIVER: tissue Liver; for ALP / ALT / AST / BUN / CRE / DBIL / GLC / K / Na / PL / RALB / TBIL / TC / TG / TP / gamma-GTP: tissue Plasma

With `CN1C(=O)CN=C(c2ccccc2)c2cc(Cl)ccc21` [DIAZEPAM] the TERMINAL_BW (3 h) was 214.4 g, the APTT (3 h) was 15.9 s and the Bas (3 h) was 0%. The Eos (3 h) was 1%, the Fbg (3 h) was 213.4 mg/dL and the Hb (3 h) was 13.5 g/dL. For the same molecule, the Ht (3 h) was 40.5%, the Lym (3 h) was 71.2% and the MCH (3 h) was 22.3 pg. For the same molecule, the MCHC (3 h) was 33.3%, the MCV (3 h) was 66.9 fL and the Mono (3 h) was 8.6%. The Neu (3 h) was 19.6%, the PT (3 h) was 12.4 s and the Plat (3 h) was 101 x10_4/uL. For the same molecule, the RBC (3 h) was 606 x10_4/ul, the Ret (3 h) was 8.2% and the WBC (3 h) was 109.8 x10_2/uL. For the same molecule, the KIDNEY_L (3 h) was 1 g, the KIDNEY_R (3 h) was 1 g and the KIDNEY_TOTAL (3 h) was 2 g. The LIVER (3 h) was 10.2 g, the ALP (3 h) was 836.4 IU/L and the ALT (3 h) was 31.8 IU/L. For the same molecule, the AST (3 h) was 66.6 IU/L, the BUN (3 h) was 14.2 mg/dL and the CRE (3 h) was 0.5 mg/dL. For the same molecule, the DBIL (3 h) was 0.028 mg/dL, the GLC (3 h) was 187.4 mg/dL and the K (3 h) was 5.2 meq/L. For the same molecule, the Na (3 h) was 138.8 meq/L, the PL (3 h) was 131.6 mg/dL and the RALB (3 h) was 3.7 g/dL. The TBIL (3 h) was 0.4 mg/dL, the TC (3 h) was 71 mg/dL and the TG (3 h) was 52.2 mg/dL. It also gave a TP (3 h) of 5.5 g/dL, a gamma-GTP (3 h) of 1.8 IU/L and a TERMINAL_BW (6 h) of 213 g. It also gave an APTT (6 h) of 16.6 s, a Bas (6 h) of 0% and an Eos (6 h) of 0.6%. For the same molecule, the Fbg (6 h) was 216 mg/dL, the Hb (6 h) was 13.8 g/dL and the Ht (6 h) was 41.8%. The Lym (6 h) was 77.2%, the MCH (6 h) was 21.4 pg and the MCHC (6 h) was 33.1%. The MCV (6 h) was 64.6 fL, the Mono (6 h) was 6.4% and the Neu (6 h) was 15.8%. The PT (6 h) was 12.6 s, the Plat (6 h) was 106.4 x10_4/uL and the RBC (6 h) was 647 x10_4/ul. For the same molecule, the Ret (6 h) was 8.5%, the WBC (6 h) was 105.2 x10_2/uL and the KIDNEY_L (6 h) was 1 g. It also gave a KIDNEY_R (6 h) of 1 g, a KIDNEY_TOTAL (6 h) of 2 g and an LIVER (6 h) of 9.6 g. It also gave an ALP (6 h) of 878 IU/L, an ALT (6 h) of 29.6 IU/L and an AST (6 h) of 60 IU/L. It also gave a BUN (6 h) of 9.8 mg/dL, a CRE (6 h) of 0.5 mg/dL and a DBIL (6 h) of 0.016 mg/dL. For the same molecule, the GLC (6 h) was 203 mg/dL, the K (6 h) was 4.9 meq/L and the Na (6 h) was 138.6 meq/L. For the same molecule, the PL (6 h) was 140 mg/dL, the RALB (6 h) was 3.7 g/dL and the TBIL (6 h) was 0.3 mg/dL. For the same molecule, the TC (6 h) was 74.8 mg/dL, the TG (6 h) was 84.2 mg/dL and the TP (6 h) was 5.6 g/dL. For the same molecule, the gamma-GTP (6 h) was 1.2 IU/L, the TERMINAL_BW (9 h) was 212.8 g and the APTT (9 h) was 15.7 s. For the same molecule, the Bas (9 h) was 0%, the Eos (9 h) was 0.8% and the Fbg (9 h) was 215.4 mg/dL. For the same molecule, the Hb (9 h) was 13.6 g/dL, the Ht (9 h) was 41.5% and the Lym (9 h) was 79.2%. The MCH (9 h) was 21.7 pg, the MCHC (9 h) was 32.8% and the MCV (9 h) was 66 fL. It also gave a Mono (9 h) of 5.6%, a Neu (9 h) of 14.4% and a PT (9 h) of 12.7 s. For the same molecule, the Plat (9 h) was 101.7 x10_4/uL, the RBC (9 h) was 628.4 x10_4/ul and the Ret (9 h) was 8.2%. For the same molecule, the WBC (9 h) was 117.7 x10_2/uL, the KIDNEY_L (9 h) was 1 g and the KIDNEY_R (9 h) was 1 g. It also gave a KIDNEY_TOTAL (9 h) of 2 g, an LIVER (9 h) of 9 g and an ALP (9 h) of 712.4 IU/L. The ALT (9 h) was 29 IU/L, the AST (9 h) was 59.8 IU/L and the BUN (9 h) was 10.6 mg/dL. The CRE (9 h) was 0.6 mg/dL, the DBIL (9 h) was 0.038 mg/dL and the GLC (9 h) was 204 mg/dL. The K (9 h) was 4.8 meq/L, the Na (9 h) was 138.6 meq/L and the PL (9 h) was 130.4 mg/dL. It also gave an RALB (9 h) of 3.7 g/dL, a TBIL (9 h) of 0.4 mg/dL and a TC (9 h) of 75 mg/dL. The TG (9 h) was 41.6 mg/dL, the TP (9 h) was 5.5 g/dL and the gamma-GTP (9 h) was 1.8 IU/L. The TERMINAL_BW (24 h) was 227.4 g, the APTT (24 h) was 16.7 s and the Bas (24 h) was 0%. The Eos (24 h) was 1%, the Fbg (24 h) was 210.2 mg/dL and the Hb (24 h) was 13.7 g/dL. For the same molecule, the Ht (24 h) was 41%, the Lym (24 h) was 81.6% and the MCH (24 h) was 21.9 pg. The MCHC (24 h) was 33.4%, the MCV (24 h) was 65.8 fL and the Mono (24 h) was 5.8%. The Neu (24 h) was 12.2%, the PT (24 h) was 12.2 s and the Plat (24 h) was 108.9 x10_4/uL. It also gave an RBC (24 h) of 624.2 x10_4/ul, a Ret (24 h) of 7.7% and a WBC (24 h) of 114.5 x10_2/uL. For the same molecule, the KIDNEY_L (24 h) was 1.1 g, the KIDNEY_R (24 h) was 1 g and the KIDNEY_TOTAL (24 h) was 2.1 g. It also gave an LIVER (24 h) of 11.2 g, an ALP (24 h) of 817.8 IU/L and an ALT (24 h) of 33.4 IU/L. It also gave an AST (24 h) of 58.4 IU/L, a BUN (24 h) of 15.2 mg/dL and a CRE (24 h) of 0.5 mg/dL. The DBIL (24 h) was 0.006 mg/dL, the GLC (24 h) was 191.2 mg/dL and the K (24 h) was 5.1 meq/L. The Na (24 h) was 138.6 meq/L, the PL (24 h) was 131.8 mg/dL and the RALB (24 h) was 3.9 g/dL. For the same molecule, the TBIL (24 h) was 0.3 mg/dL, the TC (24 h) was 63.2 mg/dL and the TG (24 h) was 112.8 mg/dL. The TP (24 h) was 5.8 g/dL and the gamma-GTP (24 h) was 1 IU/L.
